From patent US11944622B2 (Annapurna Bio, Inc., priority 2018, dated 2024)

Target: T1, APJ Receptor (Homo sapiens, UniProt P35414)
T1 sequence (P35414 1-380): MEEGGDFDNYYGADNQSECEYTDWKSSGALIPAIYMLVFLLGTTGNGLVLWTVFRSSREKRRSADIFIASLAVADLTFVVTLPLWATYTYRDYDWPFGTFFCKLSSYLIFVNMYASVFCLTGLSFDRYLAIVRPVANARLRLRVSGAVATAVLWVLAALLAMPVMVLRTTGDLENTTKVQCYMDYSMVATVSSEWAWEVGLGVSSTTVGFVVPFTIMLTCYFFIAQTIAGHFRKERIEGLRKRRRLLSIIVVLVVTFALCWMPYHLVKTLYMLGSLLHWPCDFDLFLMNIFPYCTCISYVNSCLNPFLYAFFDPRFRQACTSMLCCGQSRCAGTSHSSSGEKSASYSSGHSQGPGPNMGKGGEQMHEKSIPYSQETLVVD
Assay: APJ cAMP assay (DiscoverX enzyme fragment complementation; inhibition of forskolin-stimulated cAMP)
Type: cell-based
Conditions: CHO-K1 cell line stably expressing the APJ Receptor; EC80 forskolin; 30 minutes at 37° C.; read-out: Potency Range (APJ cAMP EC50)
Procedure, shortened: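 CHO-K1 cells stably expressing APJ incubated with compound plus EC80 forskolin for 30 min at 37° C. cAMP detected by β-galactosidase enzyme fragment complementation with chemiluminescent read-out; % activity calculated relative to vehicle and maximal controls.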

SMILES	EC50
CCOc1cccc(-c2nc3nc(CCC4CC4)c(NS(C)(=O)=O)nc3n2-c2c(OC)cccc2OC)n1 [Example 66, N-(5-(2-cyclopropylethyl)-1-(2,6-dimethoxyphenyl)-2-(6-ethoxypyridin-2-yl)-1H-imidazo[4,5-b]pyrazin-6-yl)methanesulfonamide]	< 1 nM
CCOc1cccc(-c2nc3ncc(NCC4CC4)nc3n2-c2c(OC)cccc2OC)n1 [Example 67, N-(cyclopropylmethyl)-1-(2,6-dimethoxyphenyl)-2-(6-ethoxypyridin-2-yl)-1H-imidazo[4,5-b]pyrazin-6-amine]	1 to 100 nM
CCOc1cccc(-c2nc3ncc(NS(C)(=O)=O)nc3n2-c2c(OC)ccnc2OC)n1 [Example 68, N-(1-(2,4-dimethoxypyridin-3-yl)-2-(6-ethoxypyridin-2-yl)-1H-imidazo[4,5-b]pyrazin-6-yl)methanesulfonamide]	1 to 100 nM
CCOc1cccc(-c2nc3ncc(NS(=O)(=O)Cc4cnccn4)nc3n2-c2c(OC)cccc2OC)n1 [Example 69, N-(1-(2,6-dimethoxyphenyl)-2-(6-ethoxypyridin-2-yl)-1H-imidazo[4,5-b]pyrazin-6-yl)-1-(pyrazin-2-yl)methanesulfonamide]	1 to 100 nM
CCOc1cccc(-c2nc3ncc(NS(=O)(=O)CC(C)(C)O)nc3n2-c2c(OC)cccc2OC)n1 [Example 70]	1 to 100 nM
CCOc1cccc(-c2nc3ncc(NS(=O)(=O)C[C@H]4CCN(C)C(=O)C4)nc3n2-c2c(OC)cccc2OC)n1 [Example 71, (S)—N-(1-(2,6-Dimethoxyphenyl)-2-(6-ethoxypyridin-2-yl)-1H-imidazo[4,5-b]pyrazin-6-yl)-1-(1-methyl-2-oxopiperidin-4-yl)methanesulfonamide]	< 1 nM
CCOc1cccc(-c2nc3ncc(NS(=O)(=O)C[C@@H]4CCN(C)C(=O)C4)nc3n2-c2c(OC)cccc2OC)n1 [Example 72, (R)—N-(1-(2,6-dimethoxyphenyl)-2-(6-ethoxypyridin-2-yl)-1H-imidazo[4,5-b]pyrazin-6-yl)-1-(1-methyl-2-oxopiperidin-4-yl)methanesulfonamide]	< 1 nM
CCOc1cccc(-c2nc3ncc(NS(=O)(=O)N4CCCC4)nc3n2-c2c(OC)cccc2OC)n1 [Example 73, N-(1-(2,6-dimethoxyphenyl)-2-(6-ethoxypyridin-2-yl)-1H-imidazo[4,5-b]pyrazin-6-yl)pyrrolidine-1-sulfonamide]	1 to 100 nM
CCOc1cccc(-c2nc3ncc(NS(=O)(=O)N4CCNCC4)nc3n2-c2c(OC)cccc2OC)n1 [Example 74, N-(1-(2,6-Dimethoxyphenyl)-2-(6-ethoxypyridin-2-yl)-1H-imidazo[4,5-b]pyrazin-6-yl)piperazine-1-sulfonamide]	1 to 100 nM
CCOc1cccc(-c2nc3ncc(NS(=O)(=O)N4CCCCC4)nc3n2-c2c(OC)cccc2OC)n1 [Example 75, N-(1-(2,6-dimethoxyphenyl)-2-(6-ethoxypyridin-2-yl)-1H-imidazo[4,5-b]pyrazin-6-yl)piperidine-1-sulfonamide]	< 1 nM
CCOc1cccc(-c2nc3ncc(NS(=O)(=O)N(C)C)nc3n2-c2c(OC)cccc2OC)n1 [Example 76, N-(1-(2,6-dimethoxyphenyl)-2-(6-ethoxypyridin-2-yl)-1H-imidazo[4,5-b]pyrazin-6-yl)-N′,N′-dimethylsulfamide]	1 to 100 nM
CCOc1cccc(-c2nc3ncc(NS(=O)(=O)N(C)C4CC4)nc3n2-c2c(OC)cccc2OC)n1 [Example 77, N-(1-(2,6-dimethoxyphenyl)-2-(6-ethoxypyridin-2-yl)-1H-imidazo[4,5-b]pyrazin-6-yl)-N′-methyl-N′-cyclopropylsulfamide]	< 1 nM
CCOc1cccc(-c2nc3ncc(NS(=O)(=O)Cc4ccc(F)cn4)nc3n2-c2c(OC)cccc2OC)n1 [Example 78, N-(1-(2,6-dimethoxyphenyl)-2-(6-ethoxypyridin-2-yl)-1H-imidazo[4,5-b]pyrazin-6-yl)-1-(5-fluoropyridin-2-yl)methanesulfonamide]	< 1 nM
CCOc1cccc(-c2nc3ncc(NS(=O)(=O)Cc4ncc(F)cn4)nc3n2-c2c(OC)cccc2OC)n1 [Example 79, N-(1-(2,6-dimethoxyphenyl)-2-(6-ethoxypyridin-2-yl)-1H-imidazo[4,5-b]pyrazin-6-yl)-1-(5-fluoropyrimidin-2-yl)methanesulfonamide]	< 1 nM
CCOc1cccc(-c2nc3ncc(NS(=O)(=O)Cc4ncc(C)cn4)nc3n2-c2c(OC)cccc2OC)n1 [Example 80, N-(1-(2,6-dimethoxyphenyl)-2-(6-ethoxypyridin-2-yl)-1H-imidazo[4,5-b]pyrazin-6-yl)-1-(5-methylpyrimidin-2-yl)methanesulfonamide]	< 1 nM
CCOc1cccc(-c2nc3ncc(NS(=O)(=O)C[C@H]4C[C@](C)(O)C4)nc3n2-c2c(OC)cccc2OC)n1 [Example 81, trans-N-(1-(2,6-Dimethoxyphenyl)-2-(6-ethoxypyridin-2-yl)-1H-imidazo[4,5-b]pyrazin-6-yl)-1-((1r,3r)-3-hydroxy-3-methylcyclobutyl)methanesulfonamide]	1 to 100 nM
CC#CCS(=O)(=O)Nc1cnc2nc(-c3cccc(OCC)n3)n(-c3c(OC)cccc3OC)c2n1 [Example 82, N-(1-(2,6-Dimethoxyphenyl)-2-(6-ethoxypyridin-2-yl)-1H-imidazo[4,5-b]pyrazin-6-yl)but-2-yne-1-sulfonamide]	1 to 100 nM
CCOc1cccc(-c2nc3ncc(NS(=O)(=O)Cc4ccc(C)cn4)nc3n2-c2c(OC)cccc2OC)n1 [Example 83, N-(1-(2,6-Dimethoxyphenyl)-2-(6-ethoxypyridin-2-yl)-1H-imidazo[4,5-b]pyrazin-6-yl)-1-(5-methylpyridin-2-yl)methanesulfonamide]	< 1 nM
CCOc1cccc(-c2nc3nc(CC)c(NS(C)(=O)=O)nc3n2-c2c(OC)cccc2OC)n1 [Example 86, N-(1-(2,6-dimethoxyphenyl)-2-(6-ethoxypyridin-2-yl)-5-ethyl-1H-imidazo[4,5-b]pyrazin-6-yl)methanesulfonamide]	1 to 100 nM
CCOc1cccc(-c2nc3nc(C)c(NS(C)(=O)=O)nc3n2-c2c(OC)cccc2OC)n1 [Example 87, N-(1-(2,6-Dimethoxyphenyl)-2-(6-ethoxypyridin-2-yl)-5-methyl-1H-imidazo[4,5-b]pyrazin-6-yl)methanesulfonamide]	1 to 100 nM
CCOc1cccc(-c2nc3nc(CC4CCC4)c(NS(C)(=O)=O)nc3n2-c2c(OC)cccc2OC)n1 [Example 88]	< 1 nM
CCOc1cccc(-c2nc3nc(OC4CC4)c(NS(C)(=O)=O)nc3n2-c2c(OC)cccc2OC)n1 [Example 89, N-(5-Cyclopropoxy-1-(2,6-dimethoxyphenyl)-2-(6-ethoxypyridin-2-yl)-1H-imidazo[4,5-b]pyrazin-6-yl)methanesulfonamide]	100 to 10000 nM
CCOc1cccc(-c2nc3nc(NS(=O)(=O)N4CCOCC4)cnc3n2-c2c(OC)cccc2OC)n1 [Example 90, N-(1-(2,6-Dimethoxyphenyl)-2-(6-ethoxypyridin-2-yl)-1H-imidazo[4,5-b]pyrazin-5-yl)morpholine-4-sulfonamide]	< 1 nM
CCOc1cccc(-c2nc3nc(NS(=O)(=O)Cc4ncc(C)cn4)cnc3n2-c2c(OC)cccc2OC)n1 [Example 91, N-(1-(2,6-Dimethoxyphenyl)-2-(6-ethoxypyridin-2-yl)-1H-imidazo[4,5-b]pyrazin-5-yl)-1-(5-methylpyrimidin-2-yl)methanesulfonamide]	< 1 nM
